Results taken from patent US20220401408A1, “COMPOSITIONS AND METHODS FOR RESCUING RETINAL AND CHOROIDAL STRUCTURE AND FUNCTION” (AUCKLAND UNISERVICES LIMITED, priority 2019, published 2022).
Entries after “also recorded” stand apart in the source; their conditions may differ.

Tests used:
[1] = system: GFAP, Iba-1, Connexin43 (retinal inflammation markers); experiment: Immunohistochemical labelling of GFAP, Iba-1 and Connexin43 in retina of light damaged rats; format: in vivo, Sprague Dawley (SD) rats
Protocol: (§1) Retina Light Damage Model of Dry Age-Related Macular Degeneration—The intense light damage model was prepared and carried out as described in previous studies. Mat Nor N, Guo C X, Rupenthal ID, Chen Y S, Green C R, Acosta M L. Sustained Connexin43 Mimetic Peptide Release From Loaded Nanoparticles Reduces Retinal and Choroidal Photodamage. Invest Ophthalmol Vis Sci. 2018; 59:3682-93; Guo C X, Mat Nor M N, Danesh-Meyer H V, Vessey K A, Fletcher E L, O'Carroll S J, et al. Connexin43 Mimetic Peptide Improves Retinal Function and Reduces Inflammation in a Light-Damaged Albino Rat Model. Invest Ophthalmol Vis Sci. 2016; 57:3961-73; Guo C X, Tran H, Green C R, Danesh-Meyer H V, Acosta M L. Gap junction proteins in the light-damaged albino rat. Mol Vis. 2014; 20:670-82; Noell W K, Walker V S, Kang B S, Berman S. Retinal damage by light in rats. Invest Ophthalmol. 1966; 5:450-73. The light damage rat model was selected as it allows direct comparison with this and other drugs. Kim Y, Griffin J M, Nor M N M, Zhang J, Freestone P S, Danesh-Meyer H V, et al. Tonabersat Prevents Inflammatory Damage in the Central Nervous System by Blocking Connexin43 Hemichannels. Neurotherapeutics. 2017; 14:1148-65; Mat Nor N, Guo C X, Rupenthal ID, Chen Y S, Green C R, Acosta M L, supra; Guo C X, Mat Nor M N, Danesh-Meyer H V, Vessey K A, Fletcher E L, O'Carroll S J, et al., supra. […] All experimental procedures were approved by the University of Auckland Animal Ethics Committee, approval No. 001462 and comply with the Association for Research in Vision and Ophthalmology (ARVO) statement for the use of animals in eye research. Six to eight-week old albino Sprague Dawley (SD) rats (200-250 g; male or female) were used. Adult SD rats were exposed to continuous bright light for 24 hours, consistently starting at 9:00 am to minimize possible time-of-day variability. Light exposure was to two animals at a time to prevent rats from taking cover using each other as a shield. The LD protocol and intervention was repeated until the number of individuals for each dose group was obtained (n=7 per group). The light luminance was 2700 lux, generated using fluorescent lamps (Philips Master TLD 18W/965; Koninklijke Philips Electronics N.V., China) directly above the animal cages. The lamps were cool and emitted broadband light, from 380 to 760 nm wavelength, with the average intensity at the top of the cage being 120 W/m2. Animals were free to move within the cage with access to food and water ad libidum. Baseline electroretinography (ERG) readings and optical coherence tomography (OCT) images were collected prior to the light damage. After light exposure, animals were returned to normal light-dark cycle conditions (12 hours light, 174 lux and 12 hours darkness, <62 lux) for 24 hours, 1 week or 2 weeks (and for one group 3 months).
(§2) Tonabersat treatment of light damaged rats—LD rats were randomly assigned to low, middle or high dose of tonabersat (n=7 per group). The mixture of tonabersat in peanut butter was prepared fresh for each experiment. Three oral tonabersat doses were tested (n=7 per group) with follow up to 2 weeks post-injury, and the highest dose group then split with three animals taken for histological analysis, and four animals followed to 3 months post-injury. There was a ten-animal vehicle only control group. The group of rats that were kept for 3 months were maintained in separate cages for drug or vehicle-treated animals, but were kept under the same light conditions. Tonabersat was fed to animals in peanut butter at 0.26 mg/kg (on average 0.08 mg delivered, estimated circulating concentration 10 μM), 0.8 mg/kg (average of 0.24 mg delivered; 30 μM circulating) or 2.4 mg/kg (on average 0.72 mg delivered; 90 μM circulating) following consideration of previous unsuccessful human trial dosing levels. Silberstein S D. Tonabersat, a novel gap-junction modulator for the prevention of migraine. Cephalalgia. […]

light damaged rats = experiment: Electroretinogram (ERG) in retina light damage model of dry AMD; format: in vivo, Sprague Dawley (SD) rats; conditions: for mixed a-wave amplitude vs light damaged control group: 1 week post treatment
Protocol: as §1, §2

[2] = all tonabersat treated groups, p<0.001
[3] = 2.4 mg/kg oral single dose, 3 months after light damage

For `CC(=O)c1ccc2c(c1)[C@H](NC(=O)c1ccc(F)c(Cl)c1)[C@H](O)C(C)(C)O2` [tonabersat, N-[(3S,4S)-6-acetyl-3-hydroxy-2,2-dimethyl-3,4-dihydrochromen-4-yl]-3-chloro-4-fluorobenzamide], the Iba-1 reactivity ([1]; 0.26 mg/kg) was “slightly higher level”, the GFAP labelling ([1]; 0.26 mg/kg, significantly less than vehicle) was “slight increase” and the “GFAP immunoreactivity in the retina compared to vehicle” value ([1]; 0.8 mg/kg) was “did not increase”. The “GFAP immunoreactivity in the retina compared to vehicle” value ([1]; 2.4 mg/kg) was “did not increase”, the “Connexin43 immunoreactivity in the retina compared to vehicle” value ([1]; all three tonabersat doses) was “less” and the “Connexin43 level, image quantification vs vehicle controls” value [1, 2] was “significantly less”. The “GFAP level, image quantification vs vehicle controls” value [1, 2] was “significantly less”, the “Iba-1 level, image quantification vs vehicle controls” value [1, 2] was “significantly less” and the “Iba-1 immunolabelled cells in inner plexiform layer compared to vehicle” value ([1]; drug treated groups (all three doses)) was “less active”. For the same compound, the improvement in absolute amplitude of the b-wave (on average) (light damaged rats; 0.26 mg/kg oral) was 1000 µV, the “mixed a-wave amplitude vs light damaged control group” value (light damaged rats; 0.26 mg/kg oral single dose, p<0.01) was “significant improvements” and the mixed b-wave function (light damaged rats; 0.26 mg/kg oral, 24 hours after treatment) was “significant improvement”. For the same compound, the improvement in absolute amplitude of the b-wave (on average) (light damaged rats; 0.8 mg/kg oral) was 1000 µV, the “mixed a-wave amplitude vs light damaged control group” value (light damaged rats; 0.8 mg/kg oral single dose, p<0.01) was “significant improvements” and the mixed b-wave function (light damaged rats; 0.8 mg/kg oral, 24 hours after treatment) was “significant improvement”. The improvement in absolute amplitude of the b-wave (on average) (light damaged rats; 2.4 mg/kg oral) was 1200 µV, the “mixed b-wave function, significant improvement” value (light damaged rats; 2.4 mg/kg oral (high dose), 24 hours after treatment) was “not seen” and the “mixed a-wave amplitude vs light damaged control group” value (light damaged rats; 2.4 mg/kg oral single dose, intensities 0.1-2.1 log cd·s/m2, p<0.001) was “significant improvements”. The “a-wave improvement in photoreceptor function compared with vehicle treated controls” value (light damaged rats; [3]) was “exceeding 400 V”, the “b-wave amplitude compared with vehicle treated controls” value (light damaged rats; [3]) was “exceeded 800 V” and the “PII rod response compared to before light damage” value (light damaged rats; 2.4 mg/kg oral, 3 months) was “no change; also recorded: matching the controls”. For the same compound, the “PIII rod response compared to before light damage” value (light damaged rats; 2.4 mg/kg oral, 3 months) was “no change; also recorded: only slightly lower”, the “ERG, difference to vehicle control group” value (light damaged rats; 24 hours post-light exposure, any of three oral doses (0.26, 0.8, 2.4 mg/kg)) was “no differences” and the “inner retinal function (mixed b-wave amplitude, all stimulus intensities)” value (light damaged rats; all three oral doses, 1 and 2 weeks post-treatment) was “overt improvement”. The “improvement in ERG a-wave over vehicle treated light-injured group” value (light damaged rats; all three oral doses, 2 weeks post-treatment, highest intensity, p<0.001) was about 500 V, the mixed a-wave amplitude (light damaged rats; all three oral doses, 2 weeks post-treatment, intensities 0.1-2.1 log cd·s/m2, p<0.001) was “significant recovery” and the “mixed a-wave and mixed b-wave functions” value (light damaged rats; all tonabersat-treated animals, end of 2-week recovery period) was “within the range of variance for normal, undamaged albino rats”.
